Data as given in ChEMBL document CHEMBL1150454, “Synthesis, bioactivity, and DNA-cleaving ability of desferrioxamine B-nalidixic acid and anthraquinone carboxylic acid conjugates” (Bioorg Med Chem Lett, 1995).
Values after ≈ are worked out from the molar mass of the structure shown.

How the values were obtained:
Format in all cases: functional, organism-based
Plasmodium falciparum [1] = test: In vitro antimalarial activity against Plasmodium falciparum W2
Plasmodium falciparum [2] = test: In vitro antimalarial activity against Plasmodium falciparum D6
Plasmodium falciparum [3] = test: In vitro antimalarial activity against Plasmodium falciparum D6; Not significant
Plasmodium falciparum [4] = test: In vitro antimalarial activity against Plasmodium falciparum W2; Not significant

| SMILES | IC50 (Plasmodium falciparum [1]) [µg/mL] | IC50 (Plasmodium falciparum [2]) [µg/mL] | IC50 (Plasmodium falciparum [3]) | IC50 (Plasmodium falciparum [4]) |
| --- | --- | --- | --- | --- |
| CCn1cc(C(=O)NCCCCCN(O)C(=O)CCC(=O)NCCCCCN(O)C(=O)CCC(=O)NCCCCCN(O)C(C)=O)c(=O)c2ccc(C)nc21 | ~0.6 (≈ 0.774 µM) | ~0.6 (≈ 0.774 µM) |  |  |
| CC(=O)N(O)CCCCCNC(=O)CCC(=O)N(O)CCCCCNC(=O)CCC(=O)N(O)CCCCCNC(=O)c1ccc2c(c1)C(=O)c1ccccc1C2=O |  |  | Not Active | Not Active |
